The values that follow come from publication PMC6066796 (Antiviral Research, 2018).

Read-outs that look alike come from different tables or passages of the source. A value given as a limit tells only on which side of the number the result lay.

The subject of one series is EBOV-ZsG. Description: microbe, parasite or virus in culture. Type of series: cell-based, Ebola virus.
A further series has as its system RVFV-GFP, ZH501. In words: microbe, parasite or virus in culture. The class given is cell-based, Rift Valley Fever virus.
Another series relates to HeV. In words: microbe, parasite or virus in culture. The class given is cell-based, Hendra virus.
The next series deals with hPIV3-GFP. Description: microbe, parasite or virus in culture. Type of series: cell-based, human parainfluenza virus 3.
A further series deals with SK-N-MC cells. The following applies: human.
Series [1] deals with NiV-GFP2AM. In words: microbe, parasite or virus in culture. Type of series: cell-based, Nipah virus.
The subject of series [2] is SUDV (Gulu variant). The class given is cell-based.
Another series concerns NiV (Malaysian genotype). Description: microbe, parasite or virus in culture. Type of series: cell-based, Nipah virus.
Another series concerns rgRSV224. Description: microbe, parasite or virus in culture. The class given is cell-based, respiratory syncytial virus.
For series [3], the system named is NiV-GFP2AM. Description: microbe, parasite or virus in culture. Type of series: cell-based, Nipah virus. This is another data set of the same source.
A further series deals with EBOV (Makona variant). The class given is cell-based, Ebola virus.
Another series concerns HeLa cells. The following applies: human.
The next series deals with rMV^EZEGFP(3). Type of series: cell-based, Measles virus.
Another series deals with MARV-ZsG. The class given is cell-based, Marburg virus.
The test system of another series is Huh7 cells. The following applies: human.
Series [4] concerns NCI-H358 cells.
For the next series, the system named is reporter EBOVs. Type of series: cell-based, Ebola virus.
Series [5] deals with recombinant EBOV (Mayinga variant). Type of series: cell-based, Ebola virus.
For series [6], the system named is NCI-H358 cells. The following applies: human.
A further series concerns EBOV. The following applies: at 1000 μM; cited from earlier work.
Another series deals with NiV and EBOV. The class given is cell-based, Nipah virus, Ebola virus.
The subject of a further series is henipavirus (NiV, HeV). Type of series: cell-based, Nipah virus, Hendra virus.
Series [7] relates to SUDV (Gulu variant). The class given is cell-based. The source holds these as a separate data set.
Where [8] appears, read: Henipavirus nipahense, SAEC, in Homo sapiens.

What is called EC50 is the midpoint of the concentration-response curve. For `[N-]=[N+]=N[C@]1(CO)O[C@@H](n2ccc(N)nc2=O)[C@H](O)[C@@H]1O` [R1479, 4′-azidocytidine], the “SI (selective index)” value is 2.1 ± 0.07 [>47] with EBOV-ZsG; 2.1 ± 0.57 [>47] with HeV; 3.2 ± 0.50 [>32] in the series with hPIV3-GFP; 2.9 ± 0.95 [>34] with NiV (Malaysian genotype); 3.3 ± 0.39 [>30] with rgRSV224; 1.9 ± 0.12 [>52] with rMV^EZEGFP(3). The EC50 in the series on EBOV-ZsG (Zaire ebolavirus, NCI-H358) is 2.1 µM; with RVFV-GFP, ZH501 (Rift Valley fever virus, NCI-H358) it was more than 50 µM; in the series on HeV (Henipavirus hendraense, NCI-H358) it was 2.1 µM; in the series with hPIV3-GFP (Human respirovirus 3, NCI-H358), 3.2 µM; with NiV-GFP2AM [1] (setting [8]) it was more than 50 µM; in the series on NiV (Malaysian genotype) (Henipavirus nipahense, NCI-H358) it was 2.9 µM. The EC50 in the series on rgRSV224 (human respiratory syncytial virus, NCI-H358) is 3.3 µM; in the series on NiV-GFP2AM [3] (setting [8]), more than 50 µM; in the series on EBOV (Makona variant), 2.1 µM; in [5], 2.6 µM. In addition, the “R1479-TP level (intracellular triphosphate)” value in the series with SK-N-MC cells is given as 42 ± 10 pmol/million cells; in the series with HeLa cells it was 136 ± 21 pmol/million cells; in the series on Huh7 cells it was 18 ± 0.6 pmol/million cells; in the series on NCI-H358 cells [6] it was 391 ± 72 pmol/million cells. The “Reduction of infectious SUDV titers” value in the series on SUDV (Gulu variant) [2] (at 25 μM) is listed as > 4 orders of magnitude. Also, the “Inhibition of FFU formation” value with EBOV (Makona variant) is listed as “dose-dependent inhibition”. In addition, in the series with MARV-ZsG, the “Inhibition of MARV infection by FFU assay” value was “did not show any significant inhibition”. Besides, the “Cytotoxicity (cell viability)” value in the series with NCI-H358 cells [4] is on record as “mild cytotoxicity”. In the series on reporter EBOVs, the “Antiviral activity against reporter EBOVs in Huh7 cells” value is “significantly decreased antiviral activity”.
For the compound `NC(=O)c1nc(F)c[nH]c1=O` [Favipiravir], the “Decrease of EBOV infectious yield” value in the series with EBOV is 4 logTCID50/mL.
Regarding `[N-]=[N+]=N[C@]1(CO)O[C@@H](n2ccc(N)nc2=O)[C@@H](F)[C@@H]1O` [RO-0622, 2′-deoxy-2′-β-fluoro-4′-azidocytidine], the “Antiviral activity against NiV and EBOV” value with NiV and EBOV is listed as “little to no antiviral activity”.
Same read-out and setting: as for `[N-]=[N+]=N[C@]1(CO)O[C@@H](n2ccc(N)nc2=O)[C@@H](O)[C@@H]1O` [RO-9187, 2′-deoxy-2′-β-hydroxy-4′-azidocytidine], the entry is “little to no antiviral activity”.
For the compound “2′-monofluoro-4′-azidocytidine [2′F-4′N3-C]”, the concentration for a half-maximal effect (EC50) in the series on EBOV-ZsG was 3.85 µM; in the series on RVFV-GFP, ZH501, more than 50 µM; with hPIV3-GFP, 0.16 µM; in the series with rgRSV224 it was 0.28 µM; in the series on SUDV (Gulu variant) [7], approximately 10 µM; in the series with rMV^EZEGFP(3) it was 0.27 µM. For the same compound, the EC50 with MARV-ZsG was more than 50 µM; in [5], 7.79 µM. In addition, in the series with henipavirus (NiV, HeV), the “Reduction of infectious henipavirus yields” value was 4–5 orders of magnitude. Also, in the series with NiV-GFP2AM [1], the “Effect on GFP expression” value was “completely abolished”. In addition, the “Reduction of infectious SUDV yield” value with SUDV (Gulu variant) [2] is recorded as “approximately 1.5 orders of magnitude”. Also, the “Effect on CPE” value with NiV-GFP2AM [3] was “completely abolished”. Further, the “Inhibition of FFU formation” value with EBOV (Makona variant) is “did not detect significant inhibition”. The “Inhibition of MARV infection by FFU assay” value with MARV-ZsG is “did not show any significant inhibition”. In the series on reporter EBOVs, the “Antiviral activity against reporter EBOVs in Huh7 cells” value was “significantly decreased antiviral activity”.
